Source: patent US4254128A, “2-Adamantyl hydrazines and biocidal compositions thereof” (Teva Pharmaceutical Industries Ltd., priority 1977, dated 1981)
Structures can show the parent of a compound that is named as a salt.

Columns and labels:
HSV-1 (Herpes Simplex) = assay: Inhibition test on HSV replication; type: cell-based; conditions: Human alphaherpesvirus 1, BSC-1 cells, 10 PFU/cell
Source text: BSC-1 (Green monkey kidney)
**% Inhibition of control infected for some time with same virus PFV with […]

[1] = system: 4 mycoplasma (M. gallisepticum, M. capricolum, M. hominis, A. laidlawii); assay: organism not typed; type: cell-based; conditions: read-out: 50% inhibition of growth
albino rats = assay: Antiparkinson activity (catalepsy produced by haloperidol); type: in vivo, Male Charles River albino rats
Description: Male Charles River albino rats, weighing 200-250 g, were used. Catalepsy was produced by haloperidol, 5 mg/kg i.p. The animals were placed with their front paws on a horizontal bar, about 10 cm above the ground, and animals were considered cataleptic if not changing posture for at least 30 sec. Cataleptic animals were injected i.p. with one of the drugs at a dose of 40-80 mg/kg. Catalepsy was estimated again at the intervals indicated.

albino mice [2] = assay: Stereotyped behaviour in mice; type: in vivo, Male ICR albino mice; design: scale not given here; conditions: 50 mg/kg i.p.
[3] = system: Leptospira canicola Kipod 146; assay: Anti leptospiral activity (minimal inhibition concentration); type: cell-based; conditions: for MIC: Leptospira interrogans, KIPOD146, 240 h; for anti leptospiral activity: summary in words
Description: The tests were carried out under the following conditions:
Leptospira: Leptospira canicola Kipod 146
Inoculum: 1-10^5 cells/ml
Incubation time: 10 days, 28° C.
Evaluation: Direct count in dark field microscopy after 4,7 and 10 days.
2 Minimal+0.5% albumin (Pentex)
3 Korthof rich medium with 8% serum.
4 Korthof rich medium with 2% serum.

[4] = Toxic limit in the HSV replication test; conditions: monkey, bsc-1 cells
albino mice [5] = assay: Stereotyped behaviour in mice; type: in vivo, Male ICR albino mice; design: stereotyped behaviour score / Total Score / Mean Score: scale not given here
Description: Male ICR albino mice weighing 25-30 g were put in cages with a metal grid floor, 4 in each cage. Drugs were injected intraperitoneally and stereotyped behaviour (sniffing, biting, repetitive head movement) was evaluated every 30 min.

Leishmania = assay: Anti leishmania tests, summary; type: cell-based, L. tropica; conditions: summary in words
Description: (§1) a. amastigotes in peritoneal exudate cells in Mc Coy's medium in vitro at 37° C.
b. promastigotes in Mc Coy's medium in vitro at 27° C.

S. rolfsii = assay: Antifungal activity in plants, growth on solid agar; type: cell-based; conditions: Agroathelia rolfsii, read-out: inhibiting concentration
Description: (§2) Antiplant fungal activity was tested as follows:
(§3) Inhibition of growth on solid agar mixed with various concentrations of the tested compounds.

Pythium = assay: as above; type: cell-based; conditions: read-out: inhibiting concentration
Description: as §2, §3

Sclerotinia = assay: as above; type: cell-based; conditions: read-out: inhibiting concentration
Description: as §2, §3

L. tropica amastigotes = assay: Anti leishmania test, amastigotes in peritoneal exudate cells in vitro; type: cell-based; conditions: 37° C.
Description: as §1
+++=clearance of all parasites in 24 hours
++=clearance of all parasites in 48 hours
+=clearance of all parasites in 72 hours
±=Partial clearance of parasites in 72 hours or more
-=No activity against parasites.

In the case of `C1CCN(NC2C3CC4CC(C3)CC2C4)CC1` (stereo not shown) [Example 10, 1-(2'-Adamantylamino)piperidine hydrochloride], the inhibition at 10 µg/mL (HSV-1 (Herpes Simplex); 10 μg/ml) is reported as 50%, the inhibition at 25 µg/mL (HSV-1 (Herpes Simplex); 25 μg/ml) is reported as 40% and the inhibition at 50 µg/mL (HSV-1 (Herpes Simplex); 50 μg/ml, read-out: % Inhibition) is reported as 96%. The IC50 [1] was 5 to 30 µg/mL, the Mean maximal effect (albino rats; 80 mg/kg i.p., mean of 5 rats) was 1/4 and the anticataleptic effect (albino rats; 80 mg/kg i.p., rat 1) was 0/4. The anticataleptic effect (albino rats; 80 mg/kg i.p., rat 2) was 1/4, the anticataleptic effect (albino rats; 80 mg/kg i.p., rat 3) was 0/4 and the anticataleptic effect (albino rats; 80 mg/kg i.p., rat 4) was 1/4. The anticataleptic effect (albino rats; 80 mg/kg i.p., rat 5) was 3/4, the antiparkinson activity (albino rats; summary in words) was “active” and the stereotyped behaviour score (albino mice [2]; 45 min, mouse 1) was 1. It also gave a stereotyped behaviour score (albino mice [2]; 45 min, mouse 2) of 2, a stereotyped behaviour score (albino mice [2]; 135 min, mouse 3) of 0 and a stereotyped behaviour score (albino mice [2]; 135 min, mouse 4) of 0. The MIC ([3]; Korthof + 8% serum) was 100 µg/mL, the MIC ([3]; minimal medium) was 12.5 µg/mL and the anti leptospiral activity [3] was “active”. The MNTC [4] was 50 µg/mL, the stereotyped behaviour score (albino mice [5]; 50 mg/kg i.p., 0 min, mouse 1) was 0 and the stereotyped behaviour score (albino mice [5]; 50 mg/kg i.p., 0 min, mouse 2) was 0. The stereotyped behaviour score (albino mice [5]; 50 mg/kg i.p., 0 min, mouse 3) was 0, the stereotyped behaviour score (albino mice [5]; 50 mg/kg i.p., 0 min, mouse 4) was 0 and the stereotyped behaviour score (albino mice [5]; 50 mg/kg i.p., 30 min, mouse 1) was 1. It also gave a stereotyped behaviour score (albino mice [5]; 50 mg/kg i.p., 30 min, mouse 2) of 1, a stereotyped behaviour score (albino mice [5]; 50 mg/kg i.p., 30 min, mouse 3) of 1 and a stereotyped behaviour score (albino mice [5]; 50 mg/kg i.p., 30 min, mouse 4) of 1. For the same compound, the stereotyped behaviour score (albino mice [5]; 50 mg/kg i.p., 45 min, mouse 3) was 1, the stereotyped behaviour score (albino mice [5]; 50 mg/kg i.p., 45 min, mouse 4) was 0 and the stereotyped behaviour score (albino mice [5]; 50 mg/kg i.p., 60 min, mouse 1) was 1. For the same compound, the stereotyped behaviour score (albino mice [5]; 50 mg/kg i.p., 60 min, mouse 2) was 1, the stereotyped behaviour score (albino mice [5]; 50 mg/kg i.p., 60 min, mouse 3) was 1 and the stereotyped behaviour score (albino mice [5]; 50 mg/kg i.p., 60 min, mouse 4) was 1. It also gave a stereotyped behaviour score (albino mice [5]; 50 mg/kg i.p., 90 min, mouse 1) of 1, a stereotyped behaviour score (albino mice [5]; 50 mg/kg i.p., 90 min, mouse 2) of 1 and a stereotyped behaviour score (albino mice [5]; 50 mg/kg i.p., 90 min, mouse 3) of 1. For the same compound, the stereotyped behaviour score (albino mice [5]; 50 mg/kg i.p., 90 min, mouse 4) was 1, the stereotyped behaviour score (albino mice [5]; 50 mg/kg i.p., 120 min, mouse 1) was 0 and the stereotyped behaviour score (albino mice [5]; 50 mg/kg i.p., 120 min, mouse 2) was 0. It also gave a stereotyped behaviour score (albino mice [5]; 50 mg/kg i.p., 120 min, mouse 3) of 0, a stereotyped behaviour score (albino mice [5]; 50 mg/kg i.p., 120 min, mouse 4) of 0 and a stereotyped behaviour score (albino mice [5]; 50 mg/kg i.p., 135 min, mouse 1) of 0. The stereotyped behaviour score (albino mice [5]; 50 mg/kg i.p., 135 min, mouse 2) was 0, the stereotyped behaviour score (albino mice [5]; 50 mg/kg i.p., 150 min, mouse 1) was 0 and the stereotyped behaviour score (albino mice [5]; 50 mg/kg i.p., 150 min, mouse 2) was 0. It also gave a stereotyped behaviour score (albino mice [5]; 50 mg/kg i.p., 150 min, mouse 3) of 0, a stereotyped behaviour score (albino mice [5]; 50 mg/kg i.p., 150 min, mouse 4) of 0 and a stereotyped behaviour score (albino mice [5]; 50 mg/kg i.p., 180 min, mouse 1) of 1. For the same compound, the stereotyped behaviour score (albino mice [5]; 50 mg/kg i.p., 180 min, mouse 2) was 1, the stereotyped behaviour score (albino mice [5]; 50 mg/kg i.p., 180 min, mouse 3) was 0 and the stereotyped behaviour score (albino mice [5]; 50 mg/kg i.p., 180 min, mouse 4) was 0. The stereotyped behaviour score (albino mice [5]; 50 mg/kg i.p., 210 min, mouse 1) was 1, the stereotyped behaviour score (albino mice [5]; 50 mg/kg i.p., 210 min, mouse 2) was 0 and the stereotyped behaviour score (albino mice [5]; 50 mg/kg i.p., 210 min, mouse 3) was 0. It also gave a stereotyped behaviour score (albino mice [5]; 50 mg/kg i.p., 210 min, mouse 4) of 0, a stereotyped behaviour score (albino mice [5]; 50 mg/kg i.p., 240 min, mouse 1) of 0 and a stereotyped behaviour score (albino mice [5]; 50 mg/kg i.p., 240 min, mouse 2) of 0. The stereotyped behaviour score (albino mice [5]; 50 mg/kg i.p., 240 min, mouse 3) was 0, the stereotyped behaviour score (albino mice [5]; 50 mg/kg i.p., 240 min, mouse 4) was 0 and the “Mean Score” value (albino mice [5]; 50 mg/kg i.p., mean of 4 mice) was 4.75. The “Total Score” value (albino mice [5]; 50 mg/kg i.p., mouse 1) was 6, the “Total Score” value (albino mice [5]; 50 mg/kg i.p., mouse 2) was 6 and the “Total Score” value (albino mice [5]; 50 mg/kg i.p., mouse 3) was 4. For the same compound, the “Total Score” value (albino mice [5]; 50 mg/kg i.p., mouse 4) was 3 and the stereotyped behaviour activity (albino mice [5]; summary in words) was “active”.

In the case of `NNC1C2CC3CC(C2)CC1C3` (stereo not shown) [Example 18, 2-Adamantylhydrazine hydrochloride], the “activity against Leishmania” value (Leishmania) is reported as “active”, the MIC (S. rolfsii) is reported as 50 µg/mL and the MIC (Pythium) is reported as 50 µg/mL. For the same compound, the MIC (Sclerotinia) was 50 µg/mL, the “Leishmania amastigote activity score” value (L. tropica amastigotes; 10 μg) was “++ (clearance of all parasites in 48 hours)” and the “Leishmania amastigote activity score” value (L. tropica amastigotes; 100 μg) was “+++ (clearance of all parasites in 24 hours)”. The MIC ([3]; Korthof + 2% serum) was 12.5 µg/mL, the MIC ([3]; Korthof + 8% serum) was 125 µg/mL and the MIC ([3]; minimal + Pentex (0.5% albumin)) was 6.25 µg/mL. For the same compound, the MIC ([3]; minimal medium) was 3.12 µg/mL and the anti leptospiral activity [3] was “active”.

Work on `CN(NC1C2CC3CC(C2)CC1C3)c1cccc(C(F)(F)F)c1` (stereo not shown) [Example 29, 1-(2'-Adamantyl)-2-methyl-2-(m-trifluoromethylphenyl)hydrazine hydrochloride hemihydrate] yielded an MIC (S. rolfsii) of 50 µg/mL, an MIC (Pythium) of 50 µg/mL and an MIC (Sclerotinia) of 50 µg/mL. For the same compound, the MIC ([3]; Korthof + 8% serum) was 6.25 µg/mL, the MIC ([3]; minimal medium) was 6.25 µg/mL and the anti leptospiral activity [3] was “active”.
